In one assay the test system is Daudi. Kind of assay: blood-system cancer cell strain proliferation, Coulter Counter, Daudi. The assay is classed as cell-based. The settings on record: for Daudi cell number relative to glucose: seventh day, glucose = 100%; for Daudi-cell proliferation inhibitory effect: 0.05-50 mM, 7 days, D-glucose control. How it is done:
(§1) (2) Method: Total 6 kinds of cell strains, i.e., Myeloid (HL-60, THP-1, KG-1), T-cell (MT-2), and B-Cell (Daudi, KS-1), and 3 kinds of rare saccharides (i.e., D-psicose, D-altrose, and D-allose), were employed. The culture medium and the cells were prepared to be 1 mL in total and 1×10^5 in number, respectively. Then, the cell number at each of fourth day and seventh day was counted by using a Coulter Counter. Each rare saccharide was added at concentrations of 0.05, 0.5, 5 and 50 mM, while D-glucose was used as a control.
(§2) Culture Medium: FBS 10% added RPMI1460
(§3) Cultivation Conditions: 37° C., 5% CO2
(§4) Cultivation Vessel: FALCON, MULTIWELL, 12 wells
(§5) Number of Cultivation Days: 7 days
(§6) Saccharides Concentration: 0.05, 0.5, 5, 50 mM

The next assay concerns the target human albumin (Homo sapiens, UniProt P02768). Kind of assay: saccharification (glycation) of albumin, glycoalbumin reagent. The settings on record: albumin 3 g/dl. The class given is biochemical. How it is done: (2) Method: After fragmenting albumin into amino acids by using protease K, i.e., glycoalbumin (GA) measurement reagent (made by Oriental Yeast Co., Ltd.), glycolysine was measured by using ketoamine oxydase (see FIG. 38). Glycation of human albumin with various rare saccharides was examined. A sample was prepared through the steps of dissolving 3 g/dl of pure human albumin in PBS and then dissolving each of the rare saccharides so as to prepare a solution in final concentration of 55.5 mM. The prepared solution was filtrated with a filter of 0.25 μm mesh and sterilized, followed by incubation at 37° C. for 7 days. During the incubation, the GA concentration (glycolysine concentration) was measured at intervals of exactly 24 hours. Further, similar experiments were conducted by adding each of the rare saccharides in an albumin solution (final concentration 3 g/dl) and a glucose solution (final concentration 55.5 mM) so that each of the rare saccharides had final concentration of 55.5 mM.

The subject of the next assay is HL-60. Kind of assay: blood-system cancer cell strain proliferation, Coulter Counter, HL60. The class given is cell-based. The note with it: for HL60 cell number relative to glucose: seventh day, glucose = 100%; for HL60 proliferation inhibitory effect: 0.05-50 mM, 7 days, D-glucose control. How it is done:
as §1, §2, §3, §4, §5, §6

Another assay has as its system hippocampus neurons. Kind of assay: temporary brain ischemia, survival of hippocampus neurons. The class given is in vivo, gerbil. The settings on record: for necrosis of hippocampus neurons caused by ischemia: 200 mg/kg before ischemia, 5 minutes ischemia, after 1 week. How it is done: (2) Method: The bilateral common carotid artery of a gerbil was shut off for 5 minutes. After 1 week, the gerbil was sacrificed and a sample was prepared in accordance with the ordinary method, followed by hematoxyline eosin dyeing. The survival rate was measured by counting the number of hippocampus neurons while looking at them under a microscope. Experiments were performed on a normal control group, a group subjected to only ischemia, and a group administrated with 200 mg/kg of D-allose or D-psicose before ischemia. It is known that glutamates released in large amount from the neurons with ischemia are toxic to the neurons. Such a point was examined by fixing the gerbil to a brain position fixing device, perfusing a solution, in which oxidase glutamate is dissolved, to the hippocampus through a probe for micro-dialysis, and measuring the glutamate concentration outside the hippocampus neurons. Also, the inventors have clarified the relationship between the metabolism of glucose and the action mechanism of D-allose with ischemia by pre-administrating D-allose and 2-deoxiglucose.

Assay [1] concerns Rat leukocyte (granulocyte). The assay can be described thus: production of active oxygen from leukocyte, LO12 chemiluminescence, zymosan. The assay is classed as cell-based. The settings on record: for production of active oxygen from leukocyte: saccharide 10 mM added to the producing system, zymosan. How it is done: Influences of various kinds of rare saccharides upon production of active oxygen from leukocyte were examined under the conditions given below. In this Example 5, an effect against the production of active oxygen from leukocyte was examined with LO12 chemiluminescence.
(1) Target leukocyte to which the rare saccharides were added: Rat leukocyte (granulocyte) was used.
(2) Rare saccharides added: In addition to D-allose as a rare saccharide belonging to aldose, D-psicose and D-altros as rare saccharides belonging to ketose and D-tallitol belong to polyol were added as other comparative saccharides. Further, D-glucose and D-fructose were employed as saccharides abundant in the natural world.
(3) Experiment method: (1) Changes over time in production of active oxygen from rat leukocyte . . . The time-dependent progress in production of active oxygen caused by adding zymosan particles to rat leukocyte (granulocyte) was examined. Also, the time-dependent progress in production of active oxygen caused under the presence of each of the rare saccharides was examined.
(2) Influences of rare saccharides upon production of active oxygen . . . By adding the various saccharides to the system for producing active oxygen from leukocyte, the amount of produced active oxygen was measured for each saccharide. The concentration of each of the added rare saccharides was set to 10 mM. Also, the measurement was made under the condition without addition of any saccharides.
(3) Effect of rare saccharides upon production of active oxygen . . . The rare saccharides were each added at concentration of 10 mM after the start of phagocytosis and the start of the production of active oxygen subsequent to addition of zymosan to leukocyte.
(4) Concentration dependency of active-oxygen production inhibitory effect of D-allose . . . Concentration dependency of the active-oxygen production inhibitory effect of D-allose was examined. D-allose was added at concentration of 0 mM, 5 mM and 10 mM.

A short description of assay [2]: rat blood-sugar value after intravenous saccharide under anesthesia. The assay is classed as in vivo. The note with it: for blood sugar value: 200 mg/kg BW intravenous, normal rats under anesthesia, fasted. How it is done: (2) Method: 1) Administration of rare saccharide: An SD male rat (with weight of about 300 g) was employed in an experiment after fasting for 20 to 24 hours. Nembutal (58 mg/kg B.W) was applied to the rat through abdominal administration, and after cutting the neck under anesthesia, a silicon tube was fixedly kept inserted in the jugular vein. A 1-ml syringe was connected to the silicon tube for administration of the rare saccharide. 2) Blood-collecting: Blood was collected by using the 1-ml syringe through the silicon tube inserted in the jugular vein. The blood-collecting was made immediately before the administration of the rare saccharide and then after 5, 10, 15, 20, 25, 30, 60, 120, 180 and 240 minutes from the same. 3) Blood sugar measurement: The blood sugar value in the collected blood was measured by using Antosense II (made by Bayer Medical).

Setting [3] is: saccharide 55.5 mM + D-glucose 55.5 mM.
The mark [4] stands for this setting: saccharide 55.5 mM, 37° C., 7 days.

“Also recorded” adds a separate entry of the source. Some results are limits rather than exact numbers.

Sequence of human albumin (P02768 25-609): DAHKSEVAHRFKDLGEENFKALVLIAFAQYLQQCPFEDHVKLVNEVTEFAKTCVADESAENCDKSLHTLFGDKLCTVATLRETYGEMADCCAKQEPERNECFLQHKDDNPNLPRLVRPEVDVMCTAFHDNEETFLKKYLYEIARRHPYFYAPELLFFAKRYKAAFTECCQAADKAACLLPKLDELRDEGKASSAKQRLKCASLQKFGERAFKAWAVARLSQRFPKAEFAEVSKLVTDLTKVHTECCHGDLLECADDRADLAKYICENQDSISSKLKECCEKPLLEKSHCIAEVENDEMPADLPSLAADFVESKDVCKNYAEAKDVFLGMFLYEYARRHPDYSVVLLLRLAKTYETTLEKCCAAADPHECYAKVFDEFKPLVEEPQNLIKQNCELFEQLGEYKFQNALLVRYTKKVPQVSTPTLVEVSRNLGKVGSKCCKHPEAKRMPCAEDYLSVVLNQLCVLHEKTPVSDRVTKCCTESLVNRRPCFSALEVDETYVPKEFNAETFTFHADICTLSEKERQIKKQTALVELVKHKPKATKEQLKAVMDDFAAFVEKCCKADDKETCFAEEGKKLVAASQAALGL

For `O=C[C@H](O)[C@H](O)[C@H](O)[C@H](O)CO` [D-allose], the “Daudi cell number relative to glucose” value in the assay on Daudi (0.05 mM) came out at 85.9%; in the assay with Daudi (0.5 mM), 80.6%; with Daudi (5 mM), 62.2%; with Daudi (50 mM), 3.9%. The “Daudi-cell proliferation inhibitory effect” value is given as “having the inhibitory effect” with Daudi and “showed an inhibitory effect” in the assay with Daudi (listed as allose). The “saccharification rate of albumin under coexistence with glucose” value on human albumin (setting [3]) is on record as “about 140 μmol/day”. In addition, the “saccharification rate of albumin” value on human albumin (setting [4]) is “about 90 μmol/day”. Besides, the “HL60 cell number relative to glucose” value with HL-60 (0.05 mM) is 62.6%; in the assay on HL-60 (0.5 mM), 67.7%; in the assay on HL-60 (5 mM) it was 41.5%; with HL-60 (50 mM), 30.7%. For the same compound, the “HL60 proliferation inhibitory effect” value is given as “having the inhibitory effect” in the assay with HL-60 and “showed an inhibitory effect” in the assay with HL-60 (listed as allose). Also, in the assay on hippocampus neurons, the “necrosis of hippocampus neurons caused by ischemia” value was “significantly inhibited necrosis”. In addition, in the assay with hippocampus neurons (ischemia for 5 minutes, rat brains as printed, solution containing D-allose perfused before the ischemia, 80% died without), the “hippocampus neurons alive after ischemia” value is on record as 70%. Besides, the “effective concentration for active-oxygen production inhibition” value in assay [1] (0, 5 and 10 mM tested) is “approximately 10 mM”. Moreover, in assay [1] (10 mM added after start of phagocytosis and of active oxygen production), the “production of active oxygen, saccharide added after start of production” value was “the inhibitory effect was found”. For the same compound, in assay [1] (D-allose 5 mM), the “active-oxygen production inhibitory effect” value is given as “did not appear”. Also, the inhibition at 10000 µM in assay [1] (Rattus norvegicus, Leukocyte, D-allose 10 mM, read-out: active-oxygen production inhibitory effect) was at least 50%. Further, the “production of active oxygen from leukocyte” value (shortened to “production … from leukocyte”) in assay [1] is “inhibited; also recorded: has an effect of inhibiting production of active oxygen; also recorded: very strong effect of inhibiting the production of active oxygen”. Also, the blood sugar value result in assay [2] is given as “no hypoglycemic was found”.
For the compound `O=C[C@H](O)[C@@H](O)[C@H](O)[C@H](O)CO` [D-glucose, reference compound], the “saccharification rate of albumin” value on human albumin (setting [4]) is “about 50 μmol/day”. Also, the “production … from leukocyte” value in assay [1] is given as “No inhibitory effect”. Also, the blood sugar value entry in assay [2] was “temporarily increased”. The “time until blood sugar value approached a normal value” in assay [2] (D-glucose 200 mg/kg BW intravenous) is “about 60 minutes”.
As for `O=C(CO)[C@H](O)[C@H](O)[C@H](O)CO` [D-psicose], the “Daudi-cell proliferation inhibitory effect” value with Daudi is on record as “showed no effect”. Moreover, at human albumin (setting [3]), the “effect of inhibiting glycation under coexistence with glucose” value is on record as “not found”. For the same compound, the “glycation (saccharification) of albumin” value on human albumin (setting [4]) is on record as “not found; also recorded: does not promote saccharification of albumin”. Also, the “HL60 cell number relative to glucose” value in the assay on HL-60 (0.05 mM) is on record as 84.7%; in the assay on HL-60 (0.5 mM), 80.7%; in the assay with HL-60 (5 mM), 84.2%; with HL-60 (50 mM), 93.6%. For the same compound, the “HL60 proliferation inhibitory effect” value in the assay with HL-60 is “showed an inhibitory effect”. Moreover, the “necrosis of hippocampus neurons caused by ischemia” value in the assay with hippocampus neurons was “not found; also recorded: not confirmed”. In addition, in assay [1], the “production … from leukocyte” value is given as “No inhibitory effect”. Moreover, the blood sugar value result in assay [2] is recorded as “light hypoglycemic”; in assay [2] (listed as Psicose) it was “reduced during a period of 30 to 60 minutes”.

(Values after patent US8420606B2, “Method of utilizing physiological activity of rare saccharide and composition containing rare saccharide” (priority 2002, dated 2013).)
